Test results taken from patent US6821995B1, “Method of treating batten disease” (priority 1999, dated 2004).
Where “and” joins values, the source holds several entries; their conditions need not be identical. Equal values may be shown once.

What was measured:
[1] = system: cells derived from juvenile Batten disease (JNCL or CLN3 deficient); experiment: JC-1 mitochondrial membrane potential assay of etoposide-induced apoptosis, JNCL cells; assay type: cell-based, human
Protocol: (§1) Batten disease-derived cell lines were tested for their susceptibility to apoptosis induced by etoposide and whether flupirtine had any protective effect against apoptosis. Cells derived from infantile Batten disease (INCL or CLN1 deficient), cells derived from late infantile Batten disease (LINCL or CLN2 deficient), and cells derived from juvenile Batten disease (JNCL or CLN3 deficient) received an 18 hour incubation in 30 μM etoposide with and without a pre-treatment with 20 μM flupirtine. As a control, cells were also left untreated. Cells were then stained with JC-1 fluorescent stain, which is a mitochondrial membrane potential-sensitive dye. When cells are alive, the mitochondrial potential is maintained and the mitochondria appear green. At the commitment point of apoptosis, proapoptotic agents like etopside cause a drop in mitochondrial membrane potential and the mitochondria appear yellow-red due to the formation of J-aggregates.
(§2) Cell counts were conducted for to determine the percentage of cells showing J-aggregates (TABLE 1).
(§3) The numbers of cells showing J-aggregates indicates the number of cells that are apoptosis-ready but are still viable.

[2] = system: cells derived from infantile Batten disease (INCL or CLN1 deficient); experiment: JC-1 mitochondrial membrane potential assay of etoposide-induced apoptosis, INCL cells; assay type: cell-based, human; conditions: for percentage of cells showing J-aggregates: two patient cell lines, JC-1 stain
Protocol: as §1, §2, §3

[3] = system: cells derived from late infantile Batten disease (LINCL or CLN2 deficient); experiment: JC-1 mitochondrial membrane potential assay of etoposide-induced apoptosis, LINCL cells; assay type: cell-based, human; conditions: for percentage of cells showing J-aggregates: two patient cell lines, JC-1 stain
Protocol: as §1, §2, §3

[4] = adults and children, chronically for over 12 months; cited from earlier work
stroke in rats = conditions: rats pretreated with flupirtine; cited from earlier work
[5] = system: Costa Rican Batten disease-derived fibroblasts (CLN6 deficient); experiment: Protection against etoposide-induced apoptosis, Costa Rican Batten disease cells; assay type: cell-based, human; conditions: pretreatment with flupirtine (FIG. 4)
Protocol: Graph represents number of living cells after treatments indicated.
Cells derived from Costa Rican Batten disease (CLN6 deficient) were also tested for their response to etoposide. The CLN6 gene remains uncharacterized, though linked to chromosome 15.

[6] = system: hNT neurons (human post-mitotic, fully-differentiated neurons); experiment: Etoposide-induced apoptosis in differentiated hNT neurons; assay type: cell-based; conditions: pre-treatment with 10 μM flupirtine, 20 μM etoposide 18 hour (FIG. 5)
Protocol: Cells were visualized by fluorescent microscopy.
Finally, human post-mitotic neuronal cells were tested for thier response to flupirtine and etoposide-induced apoptosis. NT2 cells were treated with retinoic acid, then mitotic inhibitors for 6 weeks to become hNT neurons that were fully differentiated. Next, the hNT neurons received an 18 hour incubation in 20 μM etoposide with and without a pre-treatment with 10 μM flupirtine.

[7] = system: retinal pigment epithelial cells and neuronal cells in culture; conditions: cited from earlier work
[8] = 30 μM etoposide alone, 18 hour incubation
[9] = pre-treatment with 20 μM flupirtine, then 30 μM etoposide 18 hour

Row | SMILES | yellow-red J-aggregates seen by fluorescent microscopy ([1]; etoposide alone (FIG. 3C)) | percentage of cells showing J-aggregates ([1]; two patient cell lines, 30 μM etoposide alone, 18 hour incubation, JC-1 stain) | yellow-red J-aggregates seen by fluorescent microscopy ([2]; etoposide alone (FIG. 3A)) | percentage of cells showing J-aggregates [2, 8] | yellow-red J-aggregates seen by fluorescent microscopy ([3]; etoposide alone (FIG. 3B)) | percentage of cells showing J-aggregates [3, 8] | tolerability in chronic use [4] | area of ischemia induced by stroke (stroke in rats) | protection from etoposide-induced apoptosis (number of living cells) [5] | effect on etoposide-induced apoptosis [6] | yellow-red J-aggregates seen by fluorescent microscopy ([1]; flupirtine pretreated, then etoposide (FIG. 3C)) | effect on apoptosis [7] | yellow-red J-aggregates seen by fluorescent microscopy ([2]; flupirtine pretreated, then etoposide (FIG. 3A)) | percentage of cells showing J-aggregates [2, 9] | protection afforded by Flupirtine ([3]; J-aggregate counts, etoposide vs etoposide + flupirtine) | yellow-red J-aggregates seen by fluorescent microscopy ([3]; flupirtine pretreated, then etoposide (FIG. 3B)) | percentage of cells showing J-aggregates [3, 9]
1 | COc1cc([C@@H]2c3cc4c(cc3[C@@H](O[C@@H]3O[C@@H]5CO[C@@H](C)O[C@H]5[C@H](O)[C@H]3O)[C@H]3COC(=O)[C@H]23)OCO4)cc(OC)c1O [Etoposide] | many yellow-red aggregates | 58.4% and 64% | many yellow-red aggregates | 61% and 51% | many yellow-red aggregates | 100% and 96% | – | – | – | – | – | – | – | – | – | – | –
2 | CCOC(=O)Nc1ccc(NCc2ccc(F)cc2)nc1N [Flupirtine, 2-amino-3-ethoxycarbonylamino-6-(p-fluorobenzylamino)-pyridine] | – | – | – | – | – | – | without undue side effect or addiction | reduce the area of ischemia | protected from etoposide-induced apoptosis | completely blocked etoposide-induced apoptosis | no aggregates | counteract apoptosis | no aggregates | 6.7% and 10.8% | almost complete | no aggregates | 0% and 1.8%
